Laboratory results published in publication PMC10812132 (Journal of biomolecular screening, 2010).
Several values for one entry are separate records, joined by “and”; a condition that tells them apart may be missing. Equal values may be shown once.

What was measured:
[1] = tested on: Influenza A/Vietnam/1203/2004 (H5N1); format: cell-based, influenza A virus; conditions: 72 h
[2] = tested on: influenza A/Brisbane/59/2007 (H1N1) virus; format: cell-based

| SMILES | SI values (SI = IC50/EC50) of screening hits [1] | Reduction in M1 RNA levels vs no-drug infected MDCK cells [2] |
| --- | --- | --- |
| O=S(=O)(O)c1cc(O)c(N=Nc2ccc3cccc(S(=O)(=O)O)c3c2O)c2ccccc12 [SR 22859] | > 13.8 |  |
| O=C(Nc1c(-c2ccccc2)nc2sccn12)c1ccccc1 [compound 786409] | > 94.6 |  |
| CN(C)c1cccc(C(=O)Nc2ccc3nc4n(c(=O)c3c2)CCCCC4)c1 [compound 9551353] | > 3.5 |  |
| NC(=O)c1ncn([C@@H]2O[C@H](CO)[C@@H](O)[C@H]2O)n1 [ribavirin] |  | 1.3 fold and 1.9 fold |
